# Laboratory results reported in patent publication US20210177814A1, “USE OF GUANABENZ OR DERIVATES THEREOF FOR THE TREATMENT OF TYPE I IFN-DEPENDENT PATHOLOGIES” (INSERM (Institut National de la Santé et de la Recherche …, priority 2018, published 2021).
# Biological target: T1, TLR9 (Mus musculus, UniProt Q9EQU3)
# T1 construct: from tissue; host or cells: whole animal: C57BL/6, FVB and FVB GADD34ΔC/ΔC mice
# T1 sequence (Q9EQU3 26-1032): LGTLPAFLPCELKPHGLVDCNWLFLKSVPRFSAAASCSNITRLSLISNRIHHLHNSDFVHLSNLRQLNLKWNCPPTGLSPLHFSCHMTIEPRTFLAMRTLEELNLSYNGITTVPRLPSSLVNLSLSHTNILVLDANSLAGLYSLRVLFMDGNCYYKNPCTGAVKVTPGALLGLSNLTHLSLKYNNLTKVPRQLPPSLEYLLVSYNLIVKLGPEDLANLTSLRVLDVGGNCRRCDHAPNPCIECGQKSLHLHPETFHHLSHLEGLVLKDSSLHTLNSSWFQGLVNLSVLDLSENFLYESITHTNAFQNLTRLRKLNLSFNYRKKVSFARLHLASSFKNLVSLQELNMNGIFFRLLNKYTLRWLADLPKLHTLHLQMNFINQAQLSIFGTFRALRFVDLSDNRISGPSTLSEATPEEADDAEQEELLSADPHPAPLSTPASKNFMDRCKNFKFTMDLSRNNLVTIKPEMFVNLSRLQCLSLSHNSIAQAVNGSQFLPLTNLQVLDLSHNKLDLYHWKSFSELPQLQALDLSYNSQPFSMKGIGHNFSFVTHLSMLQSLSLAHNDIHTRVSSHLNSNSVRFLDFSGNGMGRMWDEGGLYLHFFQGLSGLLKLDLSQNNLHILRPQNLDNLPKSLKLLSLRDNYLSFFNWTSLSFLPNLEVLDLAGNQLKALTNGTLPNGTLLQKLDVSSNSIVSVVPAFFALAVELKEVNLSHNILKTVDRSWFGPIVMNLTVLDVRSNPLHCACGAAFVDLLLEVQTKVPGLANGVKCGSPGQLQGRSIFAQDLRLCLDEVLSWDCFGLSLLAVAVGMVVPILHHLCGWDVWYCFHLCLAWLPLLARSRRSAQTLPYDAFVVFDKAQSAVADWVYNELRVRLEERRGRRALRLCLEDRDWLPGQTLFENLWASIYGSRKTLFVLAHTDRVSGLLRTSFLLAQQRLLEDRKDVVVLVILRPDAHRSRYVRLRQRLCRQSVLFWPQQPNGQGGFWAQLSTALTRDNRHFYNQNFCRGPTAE
# Assay: D-galN/CpG ODN 1826 cytokine shock model
# Type: in vivo
# Protocol: WT and GADD34^ΔC/ΔC mice were injected with D-galN (20 mg/mouse), CpG ODN 1826 or PBS for control mice (50 μg/20 g), GBZ or clonidine (2 mg/kg). (A) Survival of C57/BL6 mice is represented as total percentage of survival after 48 h or in a Kaplan-Meier plot. (B) Survival of FVB (WT) and FVB GADD34^ΔC/ΔC mice is represented as total percentage of survival after 48 h or in a Kaplan-Meier plot. (C) The concentration of circulating TNF-α, IL-10 and IL-6 in C57/BL6 mice was measured after 1 h and/or 3 h of CpG ODN 1826. (D) Liver tissue damage and histology score were blindly determined by a professional anatomopathologist. Statistical significance was assigned on sample comparison by a one-way ANOVA, followed by Tukey range test and on the survival curve using log-rank test, followed by Benjamini-Yekutieli correction (* p<0.05; ** p<0.005; ***p<0.0005.).
# Wild type female mice C57BL/6 of 8 weeks of age were injected i.p. with 2 mg/kg of GBZ, clonidine or PBS/DMSO. One hour later, they were injected i.p. with 20 mg/mouse of d-GalN and ODN 1826 50 μg/20 g (or PBS). Mice survival was checked every 12 hours for up to 48 hours. For some experiments, blood sera were collected 1 and 3 h after the injection of D-galN. The serum was used to measure circulating cytokines (TNFα, IL-6, IFNβ IL-10, IL-12). For some experiments, the liver was collected for immunohistochemistry after two days. For i.p. injections, 1 ml syringes and 25 gauge needles were used. Blood was collected from the cheek with a 18 gauge needle; for the TMPD model, no more than 200 μL were collected each time, respecting the ethic statement.
# Mouse kidney and liver were fixed in 10% buffered formalin for 24 h, then the tissues were dehydrated and embedded in paraffin. Tissue sections of 3.5 μm were cut using the microtom Leica RM2245. Hematoxylin-eosin staining was effectuated automatically with Leica autostainer XL. Finally, the slides were mounted with entellan and kept at room temperature. Biopsies were analyzed by an anatomopathologist and the clinical score was assigned in a blinded way. Pictures were taken with Nikon Eclipse.
# • a) Lobular inflammation • 0—no inflammation, 1—mild lobular inflammation (<10% of liver parenchyma), 2—moderate lobular inflammation (10-50% of liver parenchyma), 3—severe lobular inflammation (>50% of liver parenchyma) • b) Portal inflammation • 0—no portal inflammation, 1—mild portal inflammation (<⅓ of portal tracts), 2—moderate portal inflammation (approximately 50% of portal tracks), 3—severe portal inflammation (>⅔ of portal tracts) • Portal and lobular inflammation score are added=inflammation score • c) Necrosis • 0—No necrosis, 1—<10% necrosis of liver parenchyma, 2—10-25% necrosis of liver parenchyma, 3—25% necrosis of liver parenchyma • Inflammation score and necrosis score are added=Total histologic score
# [1] = WT mice, 1 hour after CpG injection, 2 mg/kg
# [2] = WT mice, 3 h after CpG injection, 2 mg/kg
compound,measurement,setting,value
"Clc1cccc(Cl)c1NC1=NCCN1 [clonidine, N-(2,6-dichlorophényl)-4,5-dihydro-1H-imidazol-2-amine]",survival after 48 h,"C57BL/6 WT mice, D-galN + CpG ODN 1826, compound 2 mg/kg i.p.",not substantially changed
same,circulating IL-6 plasma concentration,[1],some inhibitory effect
same,circulating TNF-α plasma concentration,[1],some inhibitory effect
same,inhibitory effect on IL-6 production,[2],not observed
same,inhibitory effect on TNF-α production,[2],not observed
